Data: US10471046B2, “Method for treating, preventing, or reducing the risk of skin infection” (Melinta Subsidiary Corp., priority 2014, dated 2019)
Converted amounts (≈) assume the structure as drawn.

Test system: S. aureus
Test: Minimum inhibitory concentrations (MICs) for S. aureus of exemplary compounds (Table 2)
Type: cell-based
Details: Staphylococcus aureus, minimum inhibitory concentrations for S. aureus; read-out: MICs
In short: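 Growth of S. aureus in media with or without compound, by broth microdilution in microtiter trays following NCCLS M7-A5 guidelines. Values are MICs in μg/mL.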

| Compound | MIC [µg/mL] |
| --- | --- |
| CC(=O)NC[C@H]1CN(c2ccc(-c3ccc(CNC(=O)Cn4ccnn4)cc3)c(F)c2)C(=O)O1 [Compound 4239, N-{4′-[5-(S)-(Acetylamino-methyl)-2-oxo-oxazolidin-3-yl]-2′-fluoro-biphenyl-4-ylmethyl}-2-[1,2,3]triazol-1-yl-acetamide] | 2 (≈ 4.29 µM) |
| CC(=O)NC[C@H]1CN(c2ccc(-c3ccc(CNC(=O)Cn4cc(CO)nn4)cc3)c(F)c2)C(=O)O1 [Compound 4240, N-{4′-[5-(S)-(Acetylamino-methyl)-2-oxo-oxazolidin-3-yl]-2′-fluoro-biphenyl-4-ylmethyl}-2-(4-hydroxymethyl-[1,2,3]triazol-1-yl)-acetamide] | 16 (≈ 32.2 µM) |
| CC(=O)NC[C@H]1CN(c2ccc(-c3ccc(CNCc4cc[n+]([O-])cc4)cc3)c(F)c2)C(=O)O1 [Compound 4245, N-[3-(2-Fluoro-4′-{[(1-oxy-pyridin-4-ylmethyl)-amino]-methyl}-biphenyl-4-yl)-2-oxo-oxazolidin-5-(S)-ylmethyl]-acetamide] | 2 (≈ 4.31 µM) |
| CC(=O)NC[C@H]1CN(c2ccc(-c3ccc([C@H](O)CNCc4ccccc4)cc3)c(F)c2)C(=O)O1 [Compound 4246, N-{3-[4′-(2-Benzylamino-1-(S)-hydroxy-ethyl)-2-fluoro-biphenyl-4-yl]-2-oxo-oxazolidin-5-(S)-ylmethyl}-acetamide] | 4 (≈ 8.38 µM) |
| CC(=O)NC[C@H]1CN(c2ccc(-c3ccc([C@H](O)CN(CCCF)Cc4ccccc4)cc3)c(F)c2)C(=O)O1 [Compound 4247, N-[3-(4′-{2-[Benzyl-(3-fluoro-propyl)-amino]-1-(S)-hydroxy-ethyl}-2-fluoro-biphenyl-4-yl)-2-oxo-oxazolidin-5-(S)-ylmethyl]-acetamide] | 8 (≈ 14.9 µM) |
| CC(=O)NC[C@H]1CN(c2ccc(-c3ccc([C@H](O)CN(CCC(F)(F)Cl)Cc4ccccc4)cc3)c(F)c2)C(=O)O1 [Compound 4249, N-[3-(4′-{2-[Benzyl-(3-chloro-3,3-difluoro-propyl)-amino]-1-(S)-hydroxy-ethyl}-2-fluoro-biphenyl-4-yl)-2-oxo-oxazolidin-5-(S)-ylmethyl]-acetamide] | 8 (≈ 13.6 µM) |
| CC(=O)NC[C@H]1CN(c2ccc(-c3ccc([C@H](O)CN(Cc4ccccc4)C(C)=O)cc3)c(F)c2)C(=O)O1 [Compound 4250, N-(2-{4′-[5-(S)-(Acetylamino-methyl)-2-oxo-oxazolidin-3-yl]-2′-fluoro-biphenyl-4-yl}-2-(S)-hydroxy-ethyl)-N-benzyl-acetamide] | 2 (≈ 3.85 µM) |
| CO/N=C(\CNCc1cnoc1)c1ccc(-c2ccc(N3C[C@H](CNC(C)=O)OC3=O)cc2F)cc1 [Compound 4254, N-[3-(2-Fluoro-4′-{2-[(isoxazol-4-ylmethyl)-amino]-1-methoxyimino-ethyl}-biphenyl-4-yl)-2-oxo-oxazolidin-5-(S)-ylmethyl]-acetamide] | 2 (≈ 4.04 µM) |
| CO/N=C(\CNCc1cocn1)c1ccc(-c2ccc(N3C[C@H](CNC(C)=O)OC3=O)cc2F)cc1 [Compound 4255, N-[3-(2-Fluoro-4′-{1-methoxyimino-2-[(oxazol-4-ylmethyl)-amino]-ethyl}-biphenyl-4-yl)-2-oxo-oxazolidin-5-(S)-ylmethyl]-acetamide] | 2 (≈ 4.04 µM) |
| CC(=O)NC[C@H]1CN(c2ccc(-c3ccc(CNCCCc4cn(Cc5ccccc5)nn4)cc3)c(F)c2)C(=O)O1 [Compound 4256, N-[3-(4′-{[3-(1-Benzyl-1H-[1,2,3]triazol-4-yl)-propylamino]-methyl}-2-fluoro-biphenyl-4-yl)-2-oxo-oxazolidin-5-(S)-ylmethyl]-acetamide] | 4 (≈ 7.19 µM) |
| CC(=O)NC[C@H]1CN(c2ccc(-c3ccc(CNCc4cccnc4F)cc3)c(F)c2)C(=O)O1 [Compound 4257, N-[3-(2-Fluoro-4′-{[(2-fluoro-pyridin-3-ylmethyl)-amino]-methyl}-biphenyl-4-yl)-2-oxo-oxazolidin-5-(S)-ylmethyl]-acetamide] | 0.5 (≈ 1.07 µM) |
| CC(=O)NC[C@H]1CN(c2ccc(-c3ccc(CNCCCc4cnn[nH]4)cc3)c(F)c2)C(=O)O1 [Compound 4258, N-[3-(2-Fluoro-4′-{[3-(3H-[1,2,3]triazol-4-yl)-propylamino]-methyl}-biphenyl-4-yl)-2-oxo-oxazolidin-5-(S)-ylmethyl]-acetamide] | 4 (≈ 8.57 µM) |
| CC(=O)NC[C@H]1CN(c2ccc(-c3ccc(CN(CCCF)OCc4ccccc4)cc3)c(F)c2)C(=O)O1 [Compound 4265, N-[3-(4′-{[Benzyloxy-(3-fluoro-propyl)-amino]-methyl}-2-fluoro-biphenyl-4-yl)-2-oxo-oxazolidin-5-(S)-ylmethyl]-acetamide] | 4 (≈ 7.64 µM) |
| CC(=O)NC[C@H]1CN(c2ccc(-c3ccc(CNCc4cnn[nH]4)cc3)c(F)c2)C(=O)O1 [Compound 4267, N-[3-(2-Fluoro-4′-{[(3H-[1,2,3]triazol-4-ylmethyl)-amino]-methyl}-biphenyl-4-yl)-2-oxo-oxazolidin-5-(S)-ylmethyl]-acetamide] | 0.25 (≈ 0.57 µM) |
| O=C1O[C@@H](Cn2ccnn2)CN1c1ccc(-c2ccc(CNCc3cnn[nH]3)cc2)c(F)c1 [Compound 4268, 3-(2-Fluoro-4′-{[(3H-[1,2,3]triazol-4-ylmethyl)-amino]-methyl}-biphenyl-4-yl)-5-(R)-[1,2,3]triazol-1-ylmethyl-oxazolidin-2-one] | 0.25 (≈ 0.557 µM) |
| CC(=O)NC[C@H]1CN(c2ccc(-c3ccc(CNCc4[nH]nnc4C)cc3)c(F)c2)C(=O)O1 [Compound 4269, N-[3-(2-Fluoro-4′-{[(5-methyl-3H-[1,2,3]triazol-4-ylmethyl)-amino]-methyl}-biphenyl-4-yl)-2-oxo-oxazolidin-5-(S)-ylmethyl]-acetamide] | 2 (≈ 4.42 µM) |
| CC(=O)NC[C@H]1CN(c2ccc(-c3ccc(CN(Cc4[nH]nnc4C)Cc4[nH]nnc4C)cc3)c(F)c2)C(=O)O1 [Compound 4270, N-[3-(4′-{[Bis-(5-methyl-3H-[1,2,3]triazol-4-ylmethyl)-amino]-methyl}-2-fluoro-biphenyl-4-yl)-2-oxo-oxazolidin-5-(S)-ylmethyl]-acetamide] | 4 (≈ 7.3 µM) |
| CC(=O)NC[C@H]1CN(c2ccc(-c3ccc(CNNC(=O)c4snnc4C)cc3)c(F)c2)C(=O)O1 [Compound 4271, N-(3-{2-Fluoro-4′-[N′-(4-methyl-[1,2,3]thiadiazole-carbonyl)-hydrazinomethyl]-biphenyl-4-yl}-2-oxo-oxazolidin-5-(S)-ylmethyl)-acetamide] | 0.25 (≈ 0.501 µM) |

Second part, the compound after the results:

| MIC [µg/mL] | Compound |
| --- | --- |
| 4 (≈ 7.43 µM) | CCC(O)Cc1cn(CC(=O)NCc2ccc(-c3ccc(N4C[C@H](CNC(C)=O)OC4=O)cc3F)cc2)nn1 (stereo partly drawn) [Compound 4241, N-{4′-[5-(S)-(Acetylamino-methyl)-2-oxo-oxazolidin-3-yl]-2′-fluoro-biphenyl-4-ylmethyl}-2-[4-(2-hydroxy-butyl)-[1,2,3]triazol-1-yl]-acetamide] |
| 2 (≈ 4.14 µM) | CC(=O)NC[C@H]1CN(c2ccc(-c3ccc(CNC(=O)c4csc(C)n4)cc3)c(F)c2)C(=O)O1 [Compound 4242, 2-Methyl-thiazole-4-carboxylic acid {4′-[5-(S)-(acetylamino-methyl)-2-oxo-oxazolidin-3-yl]-2′-fluoro-biphenyl-4-ylmethyl}-amide] |
| 4 (≈ 7.25 µM) | CSCCN(Cc1ccccc1)C[C@@H](O)c1ccc(-c2ccc(N3C[C@H](CNC(C)=O)OC3=O)cc2F)cc1 [Compound 4248, N-[3-(4′-{2-[Benzyl-(2-methylsulfanyl-ethyl)-amino]-1-(S)-hydroxy-ethyl}-2-fluoro-biphenyl-4-yl)-2-oxo-oxazolidin-5-(S)-ylmethyl]-acetamide] |
| 2 (≈ 4.07 µM) | CC(=O)NC[C@H]1CN(c2ccc(-c3ccc([C@H](O)CN(C)Cc4ccccc4)cc3)c(F)c2)C(=O)O1 [Compound 4251, N-(3-{4′-[2-(Benzyl-methyl-amino)-1-(S)-hydroxy-ethyl]-2-fluoro-biphenyl-4-yl}-2-oxo-oxazolidin-5-(S)-ylmethyl)-acetamide] |
| 2 (≈ 4.55 µM) | CC(=O)NC[C@H]1CN(c2ccc(-c3ccc(CNCc4cnoc4)nc3)c(F)c2)C(=O)O1 [Compound 4252, N-{3-[3-Fluoro-4-(6-{[(isoxazol-4-ylmethyl)-amino]-methyl}-pyridin-3-yl)-phenyl]-2-oxo-oxazolidin-5-(S)-ylmethyl}-acetamide] |
| 0.5 (≈ 0.966 µM) | CC(=O)NC[C@H]1CN(c2ccc(-c3ccc(CNCc4cc(Br)no4)cc3)c(F)c2)C(=O)O1 [Compound 4253, N-[3-(4′-{[(3-Bromo-isoxazol-5-ylmethyl)-amino]-methyl}-2-fluoro-biphenyl-4-yl)-2-oxo-oxazolidin-5-(S)-ylmethyl]-acetamide] |
| 4 (≈ 8.8 µM) | CC(=O)NC[C@H]1CN(c2ccc(-c3ccc(CNCCN4CCCC4)cc3)c(F)c2)C(=O)O1 [Compound 4259, N-(3-{2-Fluoro-4′-[(2-pyrrolidin-1-yl-ethylamino)-methyl]-biphenyl-4-yl}-2-oxo-oxazolidin-5-(S)-ylmethyl)-acetamide] |
| 2 (≈ 4.42 µM) | CC(=O)NC[C@H]1CN(c2ccc(-c3ccc(CNCCn4ccnn4)cc3)c(F)c2)C(=O)O1 [Compound 4262, N-(3-{2-Fluoro-4′-[(2-[1,2,3]triazol-1-yl-ethylamino)-methyl]-biphenyl-4-yl}-2-oxo-oxazolidin-5-(S)-ylmethyl)-acetamide] |
| 2 (≈ 4.31 µM) | CC(=O)NC[C@H]1CN(c2ccc(-c3ccc(CNOCc4ccccc4)cc3)c(F)c2)C(=O)O1 [Compound 4263, N-{3-[4′-(Benzyloxyamino-methyl)-2-fluoro-biphenyl-4-yl]-2-oxo-oxazolidin-5-(S)-ylmethyl}-acetamide] |
| 4 (≈ 8.57 µM) | CC(=O)NC[C@H]1CN(c2ccc(-c3ccc(CNCCCn4ccnn4)cc3)c(F)c2)C(=O)O1 [Compound 4264, N-(3-{2-Fluoro-4′-[(3-[1,2,3]triazol-1-yl-propylamino)-methyl]-biphenyl-4-yl}-2-oxo-oxazolidin-5-(S)-ylmethyl)-acetamide] |
| 4 (≈ 8.84 µM) | CC(=O)NC[C@H]1CN(c2ccc(-c3ccc(CNCCc4cnn[nH]4)cc3)c(F)c2)C(=O)O1 [Compound 4266, N-[3-(2-Fluoro-4′-{[2-(3H-[1,2,3]triazol-4-yl)-ethylamino]-methyl}-biphenyl-4-yl)-2-oxo-oxazolidin-5-(S)-ylmethyl]-acetamide] |
